Measurements as given in BindingDB's records for patent US12440494 (Albert Einstein College of Medicine, 2025).

Biological target: Serine/threonine-protein kinase B-raf [V600E] (Homo sapiens, UniProt P15056, V600E)
Experiment: Kinase Activity Assay
Description: BRAF kinase assays were performed using the Z′-LYTE™ enzymatic assay (Invitrogen, USA). […] Titrations were performed using a 1:3 dilution. Assays were performed using Select Screen (Invitrogen).

Serine/threonine-protein kinase B-raf [V600E], sequence (P15056 2-766 V600E limits assumed): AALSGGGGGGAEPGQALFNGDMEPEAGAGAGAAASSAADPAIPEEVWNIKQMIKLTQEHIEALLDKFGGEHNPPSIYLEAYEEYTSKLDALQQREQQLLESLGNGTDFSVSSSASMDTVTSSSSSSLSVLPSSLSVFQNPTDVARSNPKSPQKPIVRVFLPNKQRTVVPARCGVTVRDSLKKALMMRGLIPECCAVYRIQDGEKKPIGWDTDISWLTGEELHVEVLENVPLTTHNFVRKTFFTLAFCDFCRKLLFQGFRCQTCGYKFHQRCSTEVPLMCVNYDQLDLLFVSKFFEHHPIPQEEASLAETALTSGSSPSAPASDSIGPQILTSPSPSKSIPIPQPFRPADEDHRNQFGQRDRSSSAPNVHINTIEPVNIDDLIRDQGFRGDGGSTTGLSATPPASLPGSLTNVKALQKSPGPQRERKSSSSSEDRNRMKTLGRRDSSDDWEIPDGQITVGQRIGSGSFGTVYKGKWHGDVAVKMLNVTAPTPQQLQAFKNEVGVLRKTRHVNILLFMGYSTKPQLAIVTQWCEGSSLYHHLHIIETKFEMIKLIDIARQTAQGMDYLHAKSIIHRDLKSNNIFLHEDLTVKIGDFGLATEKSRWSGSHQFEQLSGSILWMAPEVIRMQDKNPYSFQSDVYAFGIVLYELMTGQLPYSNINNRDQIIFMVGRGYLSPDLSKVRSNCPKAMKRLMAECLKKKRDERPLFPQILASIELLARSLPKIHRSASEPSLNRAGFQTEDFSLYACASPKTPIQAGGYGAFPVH

**Q.** Which IC50 does the source give for `COC(=O)N1CCN(CCNCc2ccc(NC(=O)c3ccc(C)c(C#Cc4cnc5cccnn45)c3)cc2C(F)(F)F)CC1` [US12440494, Compound 2] here?
**A.** The IC50 was 17.8 nM.
